# Species: Rattus norvegicus
# Test: Open TG-GATES - Regimen: Single
# Assay type: toxicity, organism-based, Sprague-Dawley
# Design: regimen Single, gender Male, age 6 weeks
# Settings: in vivo, po, 300 mg/kg, route gavage, dose level High; for APTT / Bas / Eos / Fbg / Hb / Ht / Lym / MCH / MCHC / MCV / Mono / Neu / PT / Plat / RBC / Ret / WBC: tissue Blood; for KIDNEY_L / KIDNEY_R / KIDNEY_TOTAL: tissue Kidney; for LIVER: tissue Liver; for A/G / ALP / ALT / AST / BUN / CRE / Ca / Cl / DBIL / GLC / IP / K / LDH / Na / PL / RALB / TBIL / TC / TG / TP / gamma-GTP: tissue Plasma
smiles,measurement,setting,value
CCOC(=O)C(C)(C)Oc1ccc(Cl)cc1 [CLOFIBRATE],TERMINAL_BW,3 h,225.9 g
same,APTT,3 h,19.5 s
same,Bas,3 h,0%
same,Eos,3 h,1%
same,Fbg,3 h,231.2 mg/dL
same,Hb,3 h,13.5 g/dL
same,Ht,3 h,39.3%
same,Lym,3 h,78%
same,MCH,3 h,21.4 pg
same,MCHC,3 h,34.2%
same,MCV,3 h,62.5 fL
same,Mono,3 h,3%
same,Neu,3 h,17.2%
same,PT,3 h,12.5 s
same,Plat,3 h,127.2 x10_4/uL
same,RBC,3 h,629.6 x10_4/ul
same,Ret,3 h,7.9%
same,WBC,3 h,103.9 x10_2/uL
same,KIDNEY_L,3 h,1 g
same,KIDNEY_R,3 h,1 g
same,KIDNEY_TOTAL,3 h,2 g
same,LIVER,3 h,9.8 g
same,A/G,3 h,1.6
same,ALP,3 h,991.6 IU/L
same,ALT,3 h,41.8 IU/L
same,AST,3 h,73.2 IU/L
same,BUN,3 h,10.4 mg/dL
same,CRE,3 h,0.4 mg/dL
same,Ca,3 h,11 mg/dL
same,Cl,3 h,102.4 meq/L
same,DBIL,3 h,0.1 mg/dL
same,GLC,3 h,190 mg/dL
same,IP,3 h,9.4 mg/dL
same,K,3 h,3.6 meq/L
same,LDH,3 h,260.6 IU/L
same,Na,3 h,140.4 meq/L
same,PL,3 h,149.6 mg/dL
same,RALB,3 h,3.5 g/dL
same,TBIL,3 h,0.2 mg/dL
same,TC,3 h,73 mg/dL
same,TG,3 h,76.2 mg/dL
same,TP,3 h,5.6 g/dL
same,gamma-GTP,3 h,0.6 IU/L
same,TERMINAL_BW,6 h,227.7 g
same,APTT,6 h,18.2 s
same,Bas,6 h,0%
same,Eos,6 h,1%
same,Fbg,6 h,240.8 mg/dL
same,Hb,6 h,13.4 g/dL
same,Ht,6 h,38.8%
same,Lym,6 h,76.4%
same,MCH,6 h,21.1 pg
same,MCHC,6 h,34.5%
same,MCV,6 h,61.3 fL
same,Mono,6 h,3.2%
same,Neu,6 h,18.4%
same,PT,6 h,12.7 s
same,Plat,6 h,134.1 x10_4/uL
same,RBC,6 h,633.8 x10_4/ul
same,Ret,6 h,7.4%
same,WBC,6 h,83.7 x10_2/uL
same,KIDNEY_L,6 h,1 g
same,KIDNEY_R,6 h,1 g
same,KIDNEY_TOTAL,6 h,2 g
same,LIVER,6 h,9.5 g
same,A/G,6 h,1.6
same,ALP,6 h,1008 IU/L
same,ALT,6 h,35.8 IU/L
same,AST,6 h,74.4 IU/L
same,BUN,6 h,10.2 mg/dL
same,CRE,6 h,0.4 mg/dL
same,Ca,6 h,10.9 mg/dL
same,Cl,6 h,102.8 meq/L
same,DBIL,6 h,0.09 mg/dL
same,GLC,6 h,195.6 mg/dL
same,IP,6 h,9.5 mg/dL
same,K,6 h,4 meq/L
same,LDH,6 h,218.8 IU/L
same,Na,6 h,140.4 meq/L
same,PL,6 h,135 mg/dL
same,RALB,6 h,3.5 g/dL
same,TBIL,6 h,0.2 mg/dL
same,TC,6 h,71 mg/dL
same,TG,6 h,96.2 mg/dL
same,TP,6 h,5.7 g/dL
same,gamma-GTP,6 h,1.2 IU/L
same,TERMINAL_BW,9 h,229.4 g
same,APTT,9 h,18 s
same,Bas,9 h,0%
same,Eos,9 h,1%
same,Fbg,9 h,235.6 mg/dL
same,Hb,9 h,13.1 g/dL
same,Ht,9 h,38.1%
same,Lym,9 h,72.8%
same,MCH,9 h,21 pg
same,MCHC,9 h,34.5%
same,MCV,9 h,61 fL
same,Mono,9 h,2.8%
same,Neu,9 h,22.8%
same,PT,9 h,12.9 s
same,Plat,9 h,140.4 x10_4/uL
same,RBC,9 h,625.6 x10_4/ul
same,Ret,9 h,7.1%
same,WBC,9 h,69.9 x10_2/uL
same,KIDNEY_L,9 h,1 g
same,KIDNEY_R,9 h,1 g
same,KIDNEY_TOTAL,9 h,2 g
same,LIVER,9 h,9.4 g
same,A/G,9 h,1.5
same,ALP,9 h,1054.2 IU/L
same,ALT,9 h,33 IU/L
same,AST,9 h,70.4 IU/L
same,BUN,9 h,10.8 mg/dL
same,CRE,9 h,0.4 mg/dL
same,Ca,9 h,10.5 mg/dL
same,Cl,9 h,102.4 meq/L
same,DBIL,9 h,0.09 mg/dL
same,GLC,9 h,201 mg/dL
same,IP,9 h,10.3 mg/dL
same,K,9 h,3.7 meq/L
same,LDH,9 h,203.6 IU/L
same,Na,9 h,140.4 meq/L
same,PL,9 h,116 mg/dL
same,RALB,9 h,3.3 g/dL
same,TBIL,9 h,0.1 mg/dL
same,TC,9 h,53.8 mg/dL
same,TG,9 h,81.8 mg/dL
same,TP,9 h,5.5 g/dL
same,gamma-GTP,9 h,1 IU/L
same,TERMINAL_BW,24 h,236.8 g
same,APTT,24 h,19.3 s
same,Bas,24 h,0%
same,Eos,24 h,0.8%
same,Fbg,24 h,218.2 mg/dL
same,Hb,24 h,13.5 g/dL
same,Ht,24 h,38.6%
same,Lym,24 h,77.2%
same,MCH,24 h,21.2 pg
same,MCHC,24 h,34.9%
same,MCV,24 h,60.7 fL
same,Mono,24 h,4%
same,Neu,24 h,17.6%
same,PT,24 h,13.3 s
same,Plat,24 h,127.2 x10_4/uL
same,RBC,24 h,636.8 x10_4/ul
same,Ret,24 h,6.4%
same,WBC,24 h,102.9 x10_2/uL
same,KIDNEY_L,24 h,1 g
same,KIDNEY_R,24 h,1.1 g
same,KIDNEY_TOTAL,24 h,2.1 g
same,LIVER,24 h,12.3 g
same,A/G,24 h,1.7
same,ALP,24 h,1007.8 IU/L
same,ALT,24 h,38 IU/L
same,AST,24 h,79 IU/L
same,BUN,24 h,15.4 mg/dL
same,CRE,24 h,0.4 mg/dL
same,Ca,24 h,10.6 mg/dL
same,Cl,24 h,100.4 meq/L
same,DBIL,24 h,0.086 mg/dL
same,GLC,24 h,201.2 mg/dL
same,IP,24 h,7.5 mg/dL
same,K,24 h,3.8 meq/L
same,LDH,24 h,223.4 IU/L
same,Na,24 h,140 meq/L
same,PL,24 h,104.8 mg/dL
same,RALB,24 h,3.5 g/dL
same,TBIL,24 h,0.1 mg/dL
same,TC,24 h,43.6 mg/dL
same,TG,24 h,103.8 mg/dL
same,TP,24 h,5.5 g/dL
same,gamma-GTP,24 h,1.4 IU/L

# Reference: ChEMBL document CHEMBL3885861, “Open TG-GATES”
